# Measurements taken from US4298529A, “Alkoxyimino dioxy butyric acid derivatives” (Fujisawa Pharmaceutical Co., Ltd., priority 1978, dated 1981).
# Read-outs that look alike come from different tables or passages of the source.
# Key:
# [1] = tested on: Escherichia coli 54; assay: Protecting effect against experimental infections in mice; type: in vivo; settings: Escherichia coli, 54, sc, 96 h; ICR mice, i.p. challenge 1.1 × 10^7 cells/mouse, s.c. one hour after challenge, survival after four days
# Procedure: (§1) Male ICR strain mice aged 4 weeks, each weighing 18.5-21.5 g. were used in groups of 10 mice. The test bacteria were cultured overnight at 37° C. on Trypticase-soy agar and then suspended in 5% mucin to obtain the suspension corresponding to each challenge cells. Mice were inoculated intraperitoneally with 0.5 ml. of the suspension. A solution of test compound was given subcutaneously to the mice in various dosage one hour after the challenge. The ED50 values were calculated from the number of surviving mice for each dosage after four days of observation.
# [2] = tested on: Klebsiella pneumoniae 39; assay: as above; type: in vivo; settings: Klebsiella pneumoniae, 39, sc, 96 h; ICR mice, i.p. challenge 8 × 10^6 cells/mouse, s.c. one hour after challenge, survival after four days
# Procedure: as §1
# [3] = tested on: Proteus rettgeri 24; assay: as above; type: in vivo; settings: Providencia rettgeri, 24, sc, 96 h; ICR mice, i.p. challenge 9.9 × 10^6 cells/mouse, s.c. one hour after challenge, survival after four days
# Procedure: as §1
# [4] = tested on: Serratia Marcescens 58; assay: as above; type: in vivo; settings: sc, 96 h, ICR mice, i.p. challenge 1.2 × 10^7 cells/mouse, s.c. two divisional doses at 1 hr. and 3 hrs. after infection
# Procedure: as §1
# ^*3 treated with two divisional doses at 1 hr. and 3 hrs. after […]
# [5] = tested on: Escherichia coli 54; assay: MIC against the infecting strain; type: cell-based; settings: Escherichia coli, 54, 20 h
# Procedure: (§2) In vitro antibacterial activity was determined by the two-fold agar-plate dilution method as described below.
# (§3) One loopful of the 100-fold dilution of an overnight culture of each test strain in Trypticase-soy broth was streaked on heart infusion agar (HI-agar) containing graded concentrations of the test compound and incubated at 37° C. for 20 hours. The minimal inhibitory concentration (MIC) was expressed in μg/ml.
# (§4) ^*2 100fold dilution of the overnight
# [6] = tested on: Klebsiella pneumoniae 39; assay: MIC against the infecting strain; type: cell-based; settings: Klebsiella pneumoniae, 39, 20 h
# Procedure: as §2, §3, §4
# [7] = tested on: Proteus rettgeri 24; assay: MIC against the infecting strain; type: cell-based; settings: Providencia rettgeri, 24, 20 h
# Procedure: as §2, §3, §4
# [8] = tested on: Serratia Marcescens 58; assay: MIC against the infecting strain; type: cell-based; settings: 20 h
# Procedure: as §2, §3, §4
# [9] = tested on: Escherichia coli. NIHJ JC-2; assay: In vitro antibacterial activity, two-fold agar-plate dilution method; type: cell-based; settings: NIHJJC2, HI-agar, 37° C., 20 hours, 100-fold diluted overnight culture
# Procedure: as §3, with “In vitro antibacterial activity was determined by the two-fold agar-plate dilution method as described below. One” for “One”
# [10] = tested on: Klebsiella pneumoniae 20; assay: as above; type: cell-based; settings: HI-agar, 37° C., 20 hours, 100-fold diluted overnight culture
# Procedure: as §3, with “In vitro antibacterial activity was determined by the two-fold agar-plate dilution method as described below. One” for “One”
# [11] = tested on: Proteus mirabilis 18; assay: as above; type: cell-based; settings: HI-agar, 37° C., 20 hours, 100-fold diluted overnight culture
# Procedure: as §3, with “In vitro antibacterial activity was determined by the two-fold agar-plate dilution method as described below. One” for “One”
# [12] = tested on: Proteus vulgaris IAM-1025; assay: as above; type: cell-based; settings: IAM1025, HI-agar, 37° C., 20 hours, 100-fold diluted overnight culture
# Procedure: as §3, with “In vitro antibacterial activity was determined by the two-fold agar-plate dilution method as described below. One” for “One”
# [13] = tested on: Pseudomonus aeruginosa NCTC-10490; assay: as above; type: cell-based; settings: HI-agar, 37° C., 20 hours, 100-fold diluted overnight culture
# Procedure: as §3, with “In vitro antibacterial activity was determined by the two-fold agar-plate dilution method as described below. One” for “One”
# [14] = tested on: Serratia marcescens 35; assay: as above; type: cell-based; settings: HI-agar, 37° C., 20 hours, 100-fold diluted overnight culture
# Procedure: as §3, with “In vitro antibacterial activity was determined by the two-fold agar-plate dilution method as described below. One” for “One”
# [15] = tested on: Staphylococcus aureus 209P JC-1; assay: as above; type: cell-based; settings: HI-agar, 37° C., 20 hours, 100-fold diluted overnight culture
# Procedure: as §3, with “In vitro antibacterial activity was determined by the two-fold agar-plate dilution method as described below. One” for “One”
# [16] = Acute toxicity in rats; set-up: species or system rat (ICL-SD strain); settings: rat, in vivo, 7 days observation
# Procedure: Ten male and 10 female rats aged 6 weeks (ICL-SD strain) were used per group. Test compound dissolved in distilled water was given subcutaneously and intravenously to the animals. […] The LD50 values were calculated from the number of dead animals by the Litchfield-Wilcoxon method.
# [17] = inoculum size 10^0 (overnight culture)
# [18] = inoculum size 10^-2 (100fold dilution of the overnight culture)
# [19] = inoculum size 10^0 (overnight culture), read-out: MIC
SMILES,ED50 [1] [mg/kg],ED50 [2] [mg/kg],ED50 [3] [mg/kg],ED50 [4] [mg/kg],"MIC [5, 17] [µg/mL]","MIC [5, 18] [µg/mL]","MIC [6, 17] [µg/mL]","MIC [6, 18] [µg/mL]","MIC [7, 17] [µg/mL]","MIC [7, 18] [µg/mL]","MIC [8, 19] [µg/mL]",other results
"CO/N=C(\C(=O)NC1C(=O)N2C(C(=O)O)=C(COC(C)=O)CSC12)c1csc(N)n1 (stereo not drawn) [Reference, 7[2(2-Amino-4-thiazolyl)-2-methoxyiminoacetamido] cephalospolanic acid (syn isomer), reference compound]",2.8,0.995,1.17,31.4,3.13,0.1,3.13,0.05,50,0.1,50,MIC [8]: 1.56 µg/mL
"CO/N=C(\C(=O)NC1C(=O)N2C(C(=O)O)=CCSC12)c1csc(N)n1 (stereo not drawn) [Compound 1, 7-[2-(2-aminothiazol-4-yl)-2-methoxyiminoacetamido]-3-cephem-4-carboxylic acid (syn isomer)]",0.95,< 0.98,0.39,3.56,0.78,0.05,0.39,≤ 0.025,1.56,≤ 0.025,25,"MIC [9]: ≤ 0.025 µg/mL; MIC [10]: ≤ 0.025 µg/mL; MIC [11]: ≤ 0.025 µg/mL; MIC [12]: ≤ 0.025 µg/mL; MIC [13]: 0.39 µg/mL; MIC [14]: 1.56 µg/mL; MIC [15]: 6.25 µg/mL; MIC ([8]; inoculum size 10^-2 (100fold dilution of the overnight culture), read-out: MIC): 0.39 µg/mL; LD50 at 168 h ([16]; iv, female, i.v., read-out: LD50 i.v.): > 8000 mg/kg; LD50 at 168 h ([16]; iv, male, i.v., read-out: LD50 i.v.): ~8000 mg/kg; LD50 at 168 h ([16]; sc, female, s.c., read-out: LD50 s.c.): > 8000 mg/kg; LD50 at 168 h ([16]; sc, male, s.c., read-out: LD50 s.c.): > 8000 mg/kg"
